Assay results as given in patent US7531548B2, “HIV inhibiting 5-carbo- or heterocyclic substituted pyrimidines” (priority 2004, dated 2009).

melting point [°C] | Compound
> 250 | CCc1cscn1
236 | Cc1cc(/C=C/C#N)cc(C)c1Nc1nc(Nc2ccc(C#N)cc2)ncc1CNCc1cccnc1
140 | Cc1cc(/C=C/C#N)cc(C)c1Nc1nc(Nc2ccc(C#N)cc2)ncc1NCc1cccnc1
